Numbers after ± are expanded uncertainties.
What was measured:
[1] = molar heat capacity at constant pressure; conditions: 298.15 K, 101.33 kPa, Drop calorimetry
[2] = DTA
[3] = Molar enthalpy of transition or fusion; conditions: DSC

Compound | molar heat capacity at constant pressure ([1]; Crystal) [J/K/mol] | Triple point temperature ([2]; Crystal) [K] | Molar enthalpy of transition or fusion ([3]; Crystal) [kcal/mol] | other results
c1ccc(-c2cccc(-c3cccc(-c4ccccc4)c3)c2)cc1 [metaquaterphenyl] | 359.5 ± 8.4 | 360 ± 0.4 | 6.62 ± 0.191 | 
c1ccc(-c2cccc(-c3ccccc3)c2)cc1 [m-terphenyl] |  | 361.8 ± 0.7 | 6.09 ± 0.167 | 
c1ccc(-c2ccccc2-c2ccccc2-c2ccccc2-c2ccccc2)cc1 [o-quinquephenyl] | 444.3 ± 10 | 428.8 ± 0.5 | 7.74 ± 0.191 | 
c1ccc(-c2ccc(-c3ccccc3)cc2)cc1 [p-terphenyl] |  | 490.9 ± 0.6 | 7.86 ± 0.215 | 
c1ccc(-c2ccccc2-c2ccccc2-c2ccccc2)cc1 [o-quaterphenyl] | 359.1 ± 8.3 | 390.6 ± 0.5 | 6.5 ± 0.167 | 
c1ccc(-c2ccc(-c3ccc(-c4ccc(-c5ccccc5)cc4)cc3)cc2)cc1 [1,1':4',1'':4'',1''':4''',1''''-quinquephenyl] |  |  |  | molar heat capacity at constant pressure ([1]; Crystal 2): 455.5 ± 11 J/K/mol; Triple point temperature ([2]; Crystal 1): 663.4 ± 3.9 K; Triple point temperature ([2]; Crystal 2): 642.2 ± 3.9 K; Triple point temperature ([2]; Nematic liquid crystal): 696 ± 3.9 K; Molar enthalpy of transition or fusion ([3]; Crystal 1): 11.7 ± 0.956 kcal/mol; Molar enthalpy of transition or fusion ([3]; Crystal 2): 0.12 ± 0.0717 kcal/mol; Molar enthalpy of transition or fusion ([3]; Nematic liquid crystal): 0.382 ± 0.0956 kcal/mol
c1ccc(-c2ccccc2-c2ccccc2)cc1 [o-terphenyl] |  | 329.4 ± 0.4 | 4.06 ± 0.12 | 
c1ccc(-c2cccc(-c3cccc(-c4cccc(-c5ccccc5)c4)c3)c2)cc1 [1,1':3',1'':3'',1'':3'',1''''-quinquephenyl] | 443.7 ± 10 | 387.1 ± 0.4 | 7.46 ± 0.191 | 
c1ccc(-c2ccc(-c3ccc(-c4ccccc4)cc3)cc2)cc1 [1,1':4',1'':4'',1'''-quaterphenyl] |  | 594.4 ± 0.6 | 12.8 ± 0.359 | 
